In ChEMBL document CHEMBL1201862, “PubChem BioAssay data set” (2004):
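Cells were grown in 96-well plates and exposed to each compound for 48 hours at five concentrations; endpoints were interpolated linearly between bracketing concentrations, or set to the highest concentration if not reached. Abbreviation: GI50, concentration required for 50% inhibition of growth.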 Activity calls are given as the source filed them. Rule as the data show it: active = GI50 up to about 1.1 µM and inactive = higher.

Key:
Experiment in all cases: growth of human tumour cells (NCI), 48 h
HCC 2998 = system: HCC 2998
NCI-H23 = system: NCI-H23
M14 = system: M14
SNB-75 = system: SNB-75
MOLT-4 = system: MOLT-4
OVCAR-4 = system: OVCAR-4
COLO 205 = system: COLO 205
OVCAR-8 = system: OVCAR-8
MCF7 = system: MCF7
MDA-N = system: MDA-N
NCI-H460 = system: NCI-H460
HOP-62 = system: HOP-62
SK-MEL-2 = system: SK-MEL-2
U-251 = system: U-251
NCI/ADR-RES = system: NCI/ADR-RES
HCT-116 = system: HCT-116
SK-MEL-28 = system: SK-MEL-28
LOX IMVI = system: LOX IMVI

Measured: GI50

Cc1ccc(/C(O)=C/c2nc3ccccc3oc2=O)cc1
inactive: HCC 2998 > 100 µM | NCI-H23 72.1 µM | M14 > 100 µM | SNB-75 > 100 µM | MOLT-4 45.4 µM | OVCAR-4 > 100 µM | COLO 205 87.7 µM | OVCAR-8 38.4 µM | MCF7 47.6 µM | MDA-N 23.6 µM | NCI-H460 > 100 µM | HOP-62 > 100 µM | SK-MEL-2 > 100 µM | U-251 > 100 µM | NCI/ADR-RES 25.5 µM | HCT-116 75.3 µM

Cc1ccc(/N=C2\C(=N/c3ccc(C)cc3)N(c3ccc(C)cc3)C(=S)N2C(=O)c2ccccc2)cc1
inactive: HCC 2998 > 100 µM | NCI-H23 > 100 µM | M14 > 100 µM | SNB-75 17.5 µM | MOLT-4 > 100 µM | COLO 205 > 100 µM | OVCAR-8 > 10 µM | MCF7 > 100 µM | SK-MEL-28 > 100 µM | MDA-N > 100 µM | NCI-H460 > 100 µM | HOP-62 > 100 µM | SK-MEL-2 > 100 µM | U-251 > 100 µM | NCI/ADR-RES > 100 µM

COc1ccc2c(=O)c3cc([N+](=O)[O-])ccc3n(C)c2c1
inactive: HCC 2998 > 100 µM | M14 > 100 µM | SNB-75 > 100 µM | MOLT-4 > 100 µM | OVCAR-4 > 100 µM | COLO 205 > 100 µM | OVCAR-8 > 100 µM | MCF7 > 100 µM | SK-MEL-28 > 100 µM | MDA-N > 100 µM | NCI-H460 > 100 µM | SK-MEL-2 > 100 µM | U-251 > 100 µM | NCI/ADR-RES > 100 µM | LOX IMVI > 100 µM

C(=N\N=C1NCCN1)/c1ccc2ccccc2c1
inactive: HCC 2998 12.7 µM | NCI-H23 19.6 µM | SNB-75 29.5 µM | MOLT-4 10.2 µM | OVCAR-4 18.1 µM | COLO 205 6.84 µM | OVCAR-8 16.4 µM | MCF7 15.3 µM | SK-MEL-28 14.3 µM | MDA-N 14.1 µM | NCI-H460 14.4 µM | HOP-62 16.1 µM | SK-MEL-2 19.5 µM | U-251 13.9 µM | NCI/ADR-RES 11.8 µM | HCT-116 15.4 µM | LOX IMVI 12.7 µM

O=C1CC(C(O)C(O)C(O)CO)CC(=O)N1 (centres undefined)
inactive: HCC 2998 > 100 µM | NCI-H23 > 100 µM | M14 > 100 µM | SNB-75 > 100 µM | MOLT-4 > 100 µM | OVCAR-4 > 100 µM | COLO 205 > 100 µM | OVCAR-8 > 100 µM | MCF7 > 100 µM | SK-MEL-28 > 100 µM | MDA-N > 100 µM | NCI-H460 > 100 µM | HOP-62 > 100 µM | U-251 > 100 µM | NCI/ADR-RES > 100 µM | HCT-116 > 100 µM | LOX IMVI > 100 µM

NC(Cc1c[nH]c2cc([N+](=O)[O-])ccc12)C(=O)O (centres undefined)
inactive: NCI-H23 > 100 µM | M14 > 100 µM | SNB-75 > 100 µM | MOLT-4 > 100 µM | OVCAR-4 > 100 µM | COLO 205 > 100 µM | OVCAR-8 > 100 µM | MCF7 > 100 µM | SK-MEL-28 > 100 µM | MDA-N > 100 µM | NCI-H460 > 100 µM | HOP-62 > 100 µM | SK-MEL-2 > 100 µM | U-251 > 100 µM | NCI/ADR-RES > 100 µM | HCT-116 > 100 µM | LOX IMVI > 100 µM

COc1cc2c(cc1OCCCC(=O)Nc1cc(C(=O)Nc3cc(C(=O)NCCCN(C)C)n(C)n3)n(C)n1)N=CC1CCCN1C2=O (centres undefined)
inactive: HCC 2998 17.3 µM | NCI-H23 17.2 µM | M14 16 µM | MOLT-4 4.79 µM | OVCAR-4 13.3 µM | COLO 205 13.5 µM | OVCAR-8 22 µM | MCF7 12.6 µM | SK-MEL-28 16.7 µM | MDA-N 16.6 µM | NCI-H460 14.4 µM | HOP-62 20.1 µM | SK-MEL-2 16.4 µM | U-251 17 µM | NCI/ADR-RES 20 µM | HCT-116 16 µM | LOX IMVI 20.7 µM

O=C1N/C(=N/N=C/c2ccccc2)N/C1=C\c1cccs1
inactive: NCI-H23 15.9 µM | M14 29.3 µM | SNB-75 22 µM | MOLT-4 27.5 µM | OVCAR-4 22.3 µM | COLO 205 8.13 µM | OVCAR-8 13 µM | MCF7 9.84 µM | SK-MEL-28 15.8 µM | MDA-N 8.32 µM | NCI-H460 31.8 µM | HOP-62 18.3 µM | SK-MEL-2 8.57 µM | U-251 15.6 µM | NCI/ADR-RES 15.2 µM | HCT-116 17.3 µM | LOX IMVI 8.34 µM

CC(/C=N/N(C)C1=NCCCN1)=N/N(C)C1=NCCCN1
inactive: HCC 2998 > 100 µM | NCI-H23 > 100 µM | SNB-75 > 100 µM | MOLT-4 > 100 µM | OVCAR-4 > 100 µM | COLO 205 > 100 µM | OVCAR-8 > 100 µM | MCF7 > 100 µM | SK-MEL-28 > 100 µM | MDA-N > 100 µM | NCI-H460 > 100 µM | HOP-62 > 100 µM | SK-MEL-2 > 100 µM | U-251 > 100 µM | NCI/ADR-RES > 100 µM | HCT-116 > 100 µM | LOX IMVI > 100 µM

Nc1nc(=O)c2c([nH]1)NCC(CCNc1ccc(C(=O)O)cc1)N2 (centres undefined)
inactive: NCI-H23 > 100 µM | M14 > 100 µM | SNB-75 > 100 µM | MOLT-4 > 100 µM | OVCAR-4 > 100 µM | COLO 205 > 100 µM | OVCAR-8 > 100 µM | MCF7 > 100 µM | SK-MEL-28 > 100 µM | MDA-N > 100 µM | NCI-H460 > 100 µM | HOP-62 > 100 µM | SK-MEL-2 > 100 µM | U-251 > 100 µM | NCI/ADR-RES > 100 µM | HCT-116 > 100 µM | LOX IMVI > 100 µM

CN(C)Cc1cc(C(=O)/C=C/c2ccc(Cl)c(Cl)c2)cc(CN(C)C)c1O
inactive: HCC 2998 3.4 µM | NCI-H23 5.69 µM | M14 2.02 µM | SNB-75 2.07 µM | MOLT-4 3.18 µM | OVCAR-4 4.61 µM | COLO 205 1.29 µM | OVCAR-8 1.68 µM | MCF7 2.48 µM | SK-MEL-28 2.57 µM | MDA-N 3.08 µM | NCI-H460 2.12 µM | HOP-62 2.24 µM | U-251 3.08 µM | NCI/ADR-RES 2.24 µM | HCT-116 2.77 µM
active: LOX IMVI 0.716 µM

C=C1C(=O)[C@]23C[C@H]1C[C@@H](O)[C@H]2[C@]1(COC3=O)[C@@H](OC(C)=O)CC[C@@](C)(COC(C)=O)[C@H]1C=O [LOXOTHYRIN A]
inactive: HCC 2998 > 50 µM | NCI-H23 > 50 µM | SNB-75 > 50 µM | MOLT-4 9.04 µM | OVCAR-4 > 50 µM | COLO 205 8.53 µM | OVCAR-8 > 50 µM | MCF7 17.8 µM | SK-MEL-28 19.5 µM | MDA-N > 50 µM | NCI-H460 > 50 µM | HOP-62 > 50 µM | SK-MEL-2 > 50 µM | U-251 > 50 µM | NCI/ADR-RES > 50 µM | HCT-116 37 µM | LOX IMVI > 50 µM
